The numbers were not newly measured in US10576065B2, “Pharmaceutical composition containing rifaximin alpha and delta” (Sandoz AG, priority 2016, dated 2020), which cites them from elsewhere.

Read-outs that look alike come from different tables or passages of the source.

For data set [1] the following is noted: human.
Details of data set [2]: AUC: concentration or dose not given beside the values. The settings on record: dogs.
The mark [3] stands for this setting: film coated tablets, 400 mg (Blandizzi et al.).
[4] abbreviates: film coated tablets, 400 mg (Blandizzi et al.), listed as Prior art alpha.

For `CO[C@H]1/C=C/O[C@@]2(C)Oc3c(C)c(O)c4c(O)c(c5c(nc6cc(C)ccn65)c4c3C2=O)NC(=O)/C(C)=C\C=C\[C@H](C)[C@H](O)[C@@H](C)[C@@H](O)[C@@H](C)[C@H](OC(C)=O)[C@@H]1C` [amorphous, rifaximin], in data set [1] (200 mg), the AUC is 16.13 ng·h/mL and the Cmax was 3.70 ng/mL. Moreover, in data set [1] (400 mg), the AUC was 68.80 ng·h/mL and the Cmax was 15.01 ng/mL. Further, in data set [1] (setting [3]), the AUCt is 68.80 ng·h/mL and the Cmax was 15.01 ng/mL.
As for `CO[C@H]1/C=C/O[C@@]2(C)Oc3c(C)c(O)c4c(O)c(c5c(nc6cc(C)ccn65)c4c3C2=O)NC(=O)/C(C)=C\C=C\[C@H](C)[C@H](O)[C@@H](C)[C@@H](O)[C@@H](C)[C@H](OC(C)=O)[C@@H]1C` [Alpha, rifaximin], the AUC in data set [2] is 17 ng·h/mL; in data set [1] (200 mg) it was 5.77 ng·h/mL; in data set [1] (400 mg), 13.03 ng·h/mL. In addition, the Cmax in data set [2] was 2.6 ng/mL; in data set [1] (200 mg), 1.59 ng/mL; in data set [1] (400 mg), 3.54 ng/mL; in data set [1] (setting [4]), 3.54 ng/mL. Also, the AUCt in data set [1] (setting [4]) is 13.03 ng·h/mL.
Take `CO[C@H]1/C=C/O[C@@]2(C)Oc3c(C)c(O)c4c(O)c(c5c(nc6cc(C)ccn65)c4c3C2=O)NC(=O)/C(C)=C\C=C\[C@H](C)[C@H](O)[C@@H](C)[C@@H](O)[C@@H](C)[C@H](OC(C)=O)[C@@H]1C` [Epsilon, rifaximin]: in data set [2], the AUC is 77 ng·h/mL and the Cmax was 6.9 ng/mL.
Regarding `CO[C@H]1/C=C/O[C@@]2(C)Oc3c(C)c(O)c4c(O)c(c5c(nc6cc(C)ccn65)c4c3C2=O)NC(=O)/C(C)=C\C=C\[C@H](C)[C@H](O)[C@@H](C)[C@@H](O)[C@@H](C)[C@H](OC(C)=O)[C@@H]1C` [Gamma, rifaximin], in data set [2], the AUC is recorded as 4,894 ng/ml × h and the Cmax is on record as 1,085.1 ng/ml.
Take `CO[C@H]1/C=C/O[C@@]2(C)Oc3c(C)c(O)c4c(O)c(c5c(nc6cc(C)ccn65)c4c3C2=O)NC(=O)/C(C)=C\C=C\[C@H](C)[C@H](O)[C@@H](C)[C@@H](O)[C@@H](C)[C@H](OC(C)=O)[C@@H]1C` [Beta, rifaximin]: in data set [2], the AUC is 12 ng·h/mL and the Cmax was 1.1 ng/mL.
On to `CO[C@H]1/C=C/O[C@@]2(C)Oc3c(C)c(O)c4c(O)c(c5c(nc6cc(C)ccn65)c4c3C2=O)NC(=O)/C(C)=C\C=C\[C@H](C)[C@H](O)[C@@H](C)[C@@H](O)[C@@H](C)[C@H](OC(C)=O)[C@@H]1C` [Delta, rifaximin], for which, in data set [2], the AUC is 830 ng·h/mL and the Cmax is 308.3 ng/mL.

Broadly, the AUC is concentration integrated over time. What is called Cmax is the maximum level reached in the sampled fluid or tissue.
